The results in this text go back to publication PMC7180948, “New Insights into 4-Anilinoquinazolines as Inhibitors of Cardiac Troponin I–Interacting Kinase (TNNi3K)” (Molecules, 2020).

Holding throughout (assay): biochemical
Common to all, as to design: KINOMEscan competition binding panel (Eurofins DiscoverX), single concentration, % inhibition
What all share (conditions): read-out: 7 at 1 µM % inhibition

One assay concerns the target PIK3C2B (Homo sapiens, UniProt O00750). In a few lines:
(§1)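 KINOMEscan selectivity screen; >400 human kinases; compound at 1 µM, single concentration.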

For the next assay, the target named is ACVR1B (Homo sapiens, UniProt P36896). Summed up:
as §1

In the next assay the target is NEK3 (Homo sapiens, UniProt P51956). Summed up:
as §1

The next assay deals with CSNK1D (Homo sapiens, UniProt P48730). In a few lines:
as §1

Assay [1] deals with T1, RSK1(Kin.Dom.1-N-terminal) (Homo sapiens, UniProt Q15418).
T1 construct: gene RPS6KA1; Kin.Dom.1-N-terminal
In a few lines:
as §1

The next assay addresses CDK5 (Homo sapiens, UniProt Q00535). Summed up: as §1
The target in the next assay is PIKFYVE (Homo sapiens, UniProt Q9Y2I7). In a few lines:
as §1

A further assay addresses T2, PAK7 (Homo sapiens, UniProt Q9P286).
T2 construct: gene PAK5
Summed up:
as §1

The target in a further assay is T3, OSR1 (Homo sapiens, UniProt O95747).
T3 construct: gene OXSR1
In a few lines: as §1

For a further assay, the target named is STK39 (Homo sapiens, UniProt Q9UEW8). In a few lines: as §1
A further assay concerns the target EIF2AK1 (Homo sapiens, UniProt Q9BQI3). Summed up:
as §1

The target in a further assay is RIOK3 (Homo sapiens, UniProt O14730). Summed up: as §1
The target in assay [2] is T4, ABL1(T315I)-phosphorylated (Homo sapiens, UniProt P00519, T315I).
T4 construct: phosphorylated
In a few lines: as §1

The target of the next assay is LATS1 (Homo sapiens, UniProt O95835). In a few lines:
as §1

The target in another assay is HUNK (Homo sapiens, UniProt P57058). Summed up: as §1
The target of another assay is PIK3CA(E542K) (Homo sapiens, UniProt P42336, E542K). In a few lines: as §1
The next assay concerns the target MAST1 (Homo sapiens, UniProt Q9Y2H9). Summed up:
as §1

The next assay has as its target BMPR2 (Homo sapiens, UniProt Q13873). Summed up:
as §1

In a further assay the target is TNK1 (Homo sapiens, UniProt Q13470). In a few lines:
as §1

The next assay deals with T5, MLCK (Homo sapiens, UniProt Q32MK0).
T5 construct: gene MYLK3
Summed up: as §1

The next assay deals with NEK5 (Homo sapiens, UniProt Q6P3R8). In a few lines: as §1
Assay [3] deals with T6, RPS6KA4(Kin.Dom.1-N-terminal) (Homo sapiens, UniProt O75676).
T6 construct: Kin.Dom.1-N-terminal
Summed up: as §1

The next assay addresses INSRR (Homo sapiens, UniProt P14616). Summed up: as §1
Assay [4] concerns the target EGFR(L747-E749del, A750P) (Homo sapiens, UniProt P00533, A750P/DEL747-749). In a few lines:
as §1

The term inhibition denotes how much of the control response was suppressed.

T5 sequence (Q32MK0 whole entry): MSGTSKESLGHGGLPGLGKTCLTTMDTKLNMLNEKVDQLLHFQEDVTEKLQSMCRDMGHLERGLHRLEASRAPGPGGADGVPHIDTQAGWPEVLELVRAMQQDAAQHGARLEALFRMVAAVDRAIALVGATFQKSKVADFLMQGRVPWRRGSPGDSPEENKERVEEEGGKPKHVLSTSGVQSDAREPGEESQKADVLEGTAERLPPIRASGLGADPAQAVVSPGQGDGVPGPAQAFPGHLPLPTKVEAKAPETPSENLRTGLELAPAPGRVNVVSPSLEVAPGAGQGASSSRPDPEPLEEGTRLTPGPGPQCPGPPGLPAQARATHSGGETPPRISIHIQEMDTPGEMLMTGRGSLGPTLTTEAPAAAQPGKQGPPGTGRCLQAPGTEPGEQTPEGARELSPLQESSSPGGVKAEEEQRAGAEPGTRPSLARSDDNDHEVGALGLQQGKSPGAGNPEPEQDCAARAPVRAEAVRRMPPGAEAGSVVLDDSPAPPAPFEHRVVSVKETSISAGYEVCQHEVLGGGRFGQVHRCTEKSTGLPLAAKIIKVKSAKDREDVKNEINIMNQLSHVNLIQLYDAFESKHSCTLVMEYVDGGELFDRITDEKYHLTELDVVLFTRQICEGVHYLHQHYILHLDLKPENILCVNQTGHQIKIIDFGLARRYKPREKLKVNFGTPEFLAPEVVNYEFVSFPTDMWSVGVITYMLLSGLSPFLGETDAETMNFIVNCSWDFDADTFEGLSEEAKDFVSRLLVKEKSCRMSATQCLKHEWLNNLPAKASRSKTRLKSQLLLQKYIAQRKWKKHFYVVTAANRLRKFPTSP
Chain of EIF2AK1 (Q9BQI3 whole entry): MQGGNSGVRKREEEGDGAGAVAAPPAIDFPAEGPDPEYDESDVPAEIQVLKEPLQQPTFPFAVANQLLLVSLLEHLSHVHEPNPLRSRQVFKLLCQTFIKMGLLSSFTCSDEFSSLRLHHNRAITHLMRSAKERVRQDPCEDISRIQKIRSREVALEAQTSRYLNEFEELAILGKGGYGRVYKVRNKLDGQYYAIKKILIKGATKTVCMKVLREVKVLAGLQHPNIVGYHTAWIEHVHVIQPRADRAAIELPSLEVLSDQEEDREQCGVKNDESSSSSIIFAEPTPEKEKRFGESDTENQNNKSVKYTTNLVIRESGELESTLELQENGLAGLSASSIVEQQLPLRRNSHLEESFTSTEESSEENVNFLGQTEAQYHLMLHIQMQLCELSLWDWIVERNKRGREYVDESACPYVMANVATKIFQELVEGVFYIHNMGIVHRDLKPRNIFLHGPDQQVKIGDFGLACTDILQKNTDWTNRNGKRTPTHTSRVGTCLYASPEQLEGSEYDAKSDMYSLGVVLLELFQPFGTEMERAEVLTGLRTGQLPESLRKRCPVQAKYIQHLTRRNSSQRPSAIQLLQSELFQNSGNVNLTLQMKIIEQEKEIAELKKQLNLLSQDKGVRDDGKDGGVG
Chain of ACVR1B (P36896 whole entry): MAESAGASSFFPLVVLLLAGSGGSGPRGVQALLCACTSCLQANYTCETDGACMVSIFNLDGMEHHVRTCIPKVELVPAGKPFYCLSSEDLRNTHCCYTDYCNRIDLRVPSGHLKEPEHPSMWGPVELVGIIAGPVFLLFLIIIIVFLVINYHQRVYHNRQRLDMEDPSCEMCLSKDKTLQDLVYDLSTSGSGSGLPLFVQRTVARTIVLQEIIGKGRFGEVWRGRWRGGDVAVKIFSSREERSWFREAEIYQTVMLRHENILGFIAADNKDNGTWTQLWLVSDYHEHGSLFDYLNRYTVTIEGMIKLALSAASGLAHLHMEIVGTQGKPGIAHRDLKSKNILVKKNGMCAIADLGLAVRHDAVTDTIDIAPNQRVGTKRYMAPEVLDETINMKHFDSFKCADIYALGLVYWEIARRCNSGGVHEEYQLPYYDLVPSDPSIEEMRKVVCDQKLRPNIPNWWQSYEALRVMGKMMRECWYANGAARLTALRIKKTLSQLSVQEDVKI
Chain of PIK3C2B (O00750 whole entry): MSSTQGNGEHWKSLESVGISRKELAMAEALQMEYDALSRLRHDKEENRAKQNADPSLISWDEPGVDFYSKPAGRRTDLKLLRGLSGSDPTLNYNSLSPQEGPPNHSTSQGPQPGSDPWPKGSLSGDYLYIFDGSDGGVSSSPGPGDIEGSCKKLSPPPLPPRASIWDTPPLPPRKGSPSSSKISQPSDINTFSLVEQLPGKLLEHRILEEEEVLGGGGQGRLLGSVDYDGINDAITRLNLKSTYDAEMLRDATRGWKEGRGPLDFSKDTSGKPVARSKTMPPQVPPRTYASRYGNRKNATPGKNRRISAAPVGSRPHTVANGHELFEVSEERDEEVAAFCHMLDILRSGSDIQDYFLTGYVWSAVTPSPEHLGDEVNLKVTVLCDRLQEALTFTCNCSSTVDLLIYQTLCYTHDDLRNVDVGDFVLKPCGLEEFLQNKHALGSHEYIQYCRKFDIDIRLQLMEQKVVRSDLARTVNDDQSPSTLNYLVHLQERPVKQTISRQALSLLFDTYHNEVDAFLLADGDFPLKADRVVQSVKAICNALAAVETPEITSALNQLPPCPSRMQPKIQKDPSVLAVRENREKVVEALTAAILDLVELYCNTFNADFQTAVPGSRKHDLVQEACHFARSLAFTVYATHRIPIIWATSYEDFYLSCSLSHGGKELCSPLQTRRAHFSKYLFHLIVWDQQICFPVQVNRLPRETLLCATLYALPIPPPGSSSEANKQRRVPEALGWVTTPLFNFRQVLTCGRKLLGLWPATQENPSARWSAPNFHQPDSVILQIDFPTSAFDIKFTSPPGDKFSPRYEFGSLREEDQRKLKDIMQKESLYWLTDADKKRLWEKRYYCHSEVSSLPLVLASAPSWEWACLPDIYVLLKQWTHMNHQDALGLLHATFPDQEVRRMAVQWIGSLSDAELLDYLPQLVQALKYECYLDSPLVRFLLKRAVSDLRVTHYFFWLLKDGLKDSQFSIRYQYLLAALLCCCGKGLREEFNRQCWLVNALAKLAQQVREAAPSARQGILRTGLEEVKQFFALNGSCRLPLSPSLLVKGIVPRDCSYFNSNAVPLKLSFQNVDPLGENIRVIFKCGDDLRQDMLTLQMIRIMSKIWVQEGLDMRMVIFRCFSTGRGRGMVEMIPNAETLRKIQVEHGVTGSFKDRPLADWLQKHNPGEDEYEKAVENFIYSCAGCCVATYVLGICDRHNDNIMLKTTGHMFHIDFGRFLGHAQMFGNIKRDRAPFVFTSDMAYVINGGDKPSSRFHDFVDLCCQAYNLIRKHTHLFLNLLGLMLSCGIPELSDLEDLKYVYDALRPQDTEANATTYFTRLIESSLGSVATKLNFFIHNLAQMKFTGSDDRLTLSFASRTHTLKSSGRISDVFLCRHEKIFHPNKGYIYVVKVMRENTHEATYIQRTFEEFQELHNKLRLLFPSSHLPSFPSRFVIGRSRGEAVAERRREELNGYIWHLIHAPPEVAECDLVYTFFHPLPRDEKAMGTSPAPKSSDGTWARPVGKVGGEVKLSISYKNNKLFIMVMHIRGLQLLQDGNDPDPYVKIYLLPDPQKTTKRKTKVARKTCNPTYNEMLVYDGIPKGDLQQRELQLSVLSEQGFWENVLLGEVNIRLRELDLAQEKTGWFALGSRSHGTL
T3 sequence (O95747 whole entry): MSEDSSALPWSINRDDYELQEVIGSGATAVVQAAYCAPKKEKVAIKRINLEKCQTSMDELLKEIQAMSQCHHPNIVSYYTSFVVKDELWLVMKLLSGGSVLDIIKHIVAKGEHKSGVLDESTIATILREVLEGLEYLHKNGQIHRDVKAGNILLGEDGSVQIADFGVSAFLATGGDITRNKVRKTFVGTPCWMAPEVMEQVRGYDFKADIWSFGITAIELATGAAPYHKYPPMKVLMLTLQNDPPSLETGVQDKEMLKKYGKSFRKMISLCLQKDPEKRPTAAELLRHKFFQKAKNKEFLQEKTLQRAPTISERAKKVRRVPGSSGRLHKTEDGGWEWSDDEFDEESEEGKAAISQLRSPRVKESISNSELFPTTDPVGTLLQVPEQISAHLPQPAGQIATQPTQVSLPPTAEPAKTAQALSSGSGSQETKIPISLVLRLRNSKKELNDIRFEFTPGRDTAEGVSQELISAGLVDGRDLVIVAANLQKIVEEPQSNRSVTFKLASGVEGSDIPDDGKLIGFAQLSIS
Chain of CSNK1D (P48730 whole entry): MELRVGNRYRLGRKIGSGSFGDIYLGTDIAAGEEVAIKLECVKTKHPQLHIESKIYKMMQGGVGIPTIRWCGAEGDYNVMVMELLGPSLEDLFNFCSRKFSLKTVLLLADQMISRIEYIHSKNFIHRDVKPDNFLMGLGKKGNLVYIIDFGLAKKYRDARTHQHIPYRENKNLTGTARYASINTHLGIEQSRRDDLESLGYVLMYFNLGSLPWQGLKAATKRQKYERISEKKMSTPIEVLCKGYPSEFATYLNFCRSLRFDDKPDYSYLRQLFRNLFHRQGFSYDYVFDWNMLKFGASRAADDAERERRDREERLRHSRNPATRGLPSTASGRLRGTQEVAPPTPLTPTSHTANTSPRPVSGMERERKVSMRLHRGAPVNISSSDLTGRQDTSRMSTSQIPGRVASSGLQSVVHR
Chain of NEK3 (P51956 whole entry): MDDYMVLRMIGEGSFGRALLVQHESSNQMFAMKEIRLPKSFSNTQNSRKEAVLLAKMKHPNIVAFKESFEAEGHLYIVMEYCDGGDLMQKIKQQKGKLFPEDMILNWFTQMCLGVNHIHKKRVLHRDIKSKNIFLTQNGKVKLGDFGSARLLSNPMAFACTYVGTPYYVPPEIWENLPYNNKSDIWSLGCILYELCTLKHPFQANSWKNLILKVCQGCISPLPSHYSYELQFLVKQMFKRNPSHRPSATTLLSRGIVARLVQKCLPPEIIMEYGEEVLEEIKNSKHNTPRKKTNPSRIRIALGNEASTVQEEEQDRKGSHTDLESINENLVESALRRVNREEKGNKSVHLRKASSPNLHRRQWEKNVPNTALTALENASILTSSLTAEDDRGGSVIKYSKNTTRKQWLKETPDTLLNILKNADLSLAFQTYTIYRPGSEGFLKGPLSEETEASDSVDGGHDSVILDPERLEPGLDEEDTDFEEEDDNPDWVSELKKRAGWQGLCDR

With `CNS(=O)(=O)c1ccc(N(C)C)c(Nc2ncnc3cc(OC)c(OC)cc23)c1` [compound 7, 3-((6,7-dimethoxyquinazolin-4-yl)amino)-4-(dimethylamino)-N-methylbenzenesulfonamide], the inhibition at 1 µM was determined as 77% at PIK3C2B; 0% on ACVR1B; 0% on NEK3; 0% at CSNK1D; 2% in assay [1]; 0% on CDK5. Moreover, the inhibition at 1 µM at PIKFYVE was found to be 7%; at PAK7, 0%; at OSR1, 22%; at STK39, 8%; on EIF2AK1, 0%; on RIOK3, 0%. Also, the inhibition at 1 µM in [2] turned out to be 0%; on LATS1 it was 0%; on HUNK, 0%; on PIK3CA(E542K) it was 17%; at MAST1, 10%; at BMPR2 it was 0%. The inhibition at 1 µM on TNK1 was determined as 37%; at MLCK it was 0%; at NEK5 it was 25%; in assay [3], 4%; on INSRR it was 13%; in assay [4] it was 0%.
